Holding throughout (test): two-electrode voltage clamp, Xenopus oocytes
Type in all cases: cell-based

For assay [1], the target named is T1, ORCO + Or24a (Drosophila melanogaster, UniProt Q9VNB5).
T1 construct: heteromer; cRNAs co-injected in Xenopus laevis oocytes (pGEM-HE); for DTBP, site on Orco; with Odorant receptor 24a
T1 sequence (Q9VNB5 1-486): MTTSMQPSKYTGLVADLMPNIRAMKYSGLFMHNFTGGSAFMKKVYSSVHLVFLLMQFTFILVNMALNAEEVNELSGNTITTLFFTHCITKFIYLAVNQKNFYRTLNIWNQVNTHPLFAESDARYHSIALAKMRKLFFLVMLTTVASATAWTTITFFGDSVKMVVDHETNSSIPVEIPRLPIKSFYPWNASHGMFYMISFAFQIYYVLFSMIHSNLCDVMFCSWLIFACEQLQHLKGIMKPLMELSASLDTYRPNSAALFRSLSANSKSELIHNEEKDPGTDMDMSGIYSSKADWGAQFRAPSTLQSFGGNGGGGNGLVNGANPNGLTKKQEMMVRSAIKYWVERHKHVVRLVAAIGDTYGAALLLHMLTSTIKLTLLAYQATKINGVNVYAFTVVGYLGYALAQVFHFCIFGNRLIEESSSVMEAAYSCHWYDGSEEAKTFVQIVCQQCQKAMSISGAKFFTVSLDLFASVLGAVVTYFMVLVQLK
T1 sequence (P81913 1-398 partner): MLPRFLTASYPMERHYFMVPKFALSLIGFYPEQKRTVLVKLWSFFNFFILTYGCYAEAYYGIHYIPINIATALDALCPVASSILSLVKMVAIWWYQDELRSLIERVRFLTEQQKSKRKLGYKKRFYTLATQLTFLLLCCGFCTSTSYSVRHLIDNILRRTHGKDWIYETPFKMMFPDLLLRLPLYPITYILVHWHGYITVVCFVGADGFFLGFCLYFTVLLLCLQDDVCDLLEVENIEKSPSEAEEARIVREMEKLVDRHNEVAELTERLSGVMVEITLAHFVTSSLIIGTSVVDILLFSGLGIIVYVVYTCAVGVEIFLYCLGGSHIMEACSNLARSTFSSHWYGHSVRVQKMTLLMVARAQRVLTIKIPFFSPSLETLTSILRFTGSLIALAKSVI
The settings on record: agonist; holding potential -80 mV, ND96 pH 7.4, room temperature. The text has this: two-electrode voltage clamp, Xenopus oocytes on ORCO + Or24a

Assay [2] concerns the target T2, ORCO + Or35a (Drosophila melanogaster, UniProt Q9VNB5).
T2 construct: heteromer; cRNAs co-injected in Xenopus laevis oocytes (pGEM-HE); for DTBP, site on Orco; with Odorant receptor 35a
T2 sequence (Q9VNB5 1-486): T1 sequence (Q9VNB5 1-486)
T2 sequence (Q9V3Q2 1-409 partner): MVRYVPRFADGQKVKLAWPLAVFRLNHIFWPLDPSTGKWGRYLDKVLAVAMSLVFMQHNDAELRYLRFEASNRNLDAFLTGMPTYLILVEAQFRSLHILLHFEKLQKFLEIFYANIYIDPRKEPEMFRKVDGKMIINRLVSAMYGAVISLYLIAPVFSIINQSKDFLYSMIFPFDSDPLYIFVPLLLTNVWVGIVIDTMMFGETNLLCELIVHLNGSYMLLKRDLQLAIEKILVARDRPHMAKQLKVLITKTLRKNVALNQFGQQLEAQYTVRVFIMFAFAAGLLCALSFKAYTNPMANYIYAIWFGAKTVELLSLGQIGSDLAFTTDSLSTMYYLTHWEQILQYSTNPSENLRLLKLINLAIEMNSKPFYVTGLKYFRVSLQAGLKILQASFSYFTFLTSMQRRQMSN
The conditions noted are these: agonist; holding potential -80 mV, ND96 pH 7.4, room temperature. The source says: two-electrode voltage clamp, Xenopus oocytes on ORCO + Or35a

For a further assay, the target named is T3, Orco homomeric receptor (Drosophila melanogaster, UniProt Q9VNB5).
T3 construct: synthesised cDNA in pGEM-HE, cRNA injected in Xenopus laevis oocytes; homotetramer
T3 sequence (Q9VNB5 1-486): T1 sequence (Q9VNB5 1-486)
The conditions noted are these: agonist; holding potential -80 mV, ND96 pH 7.4, room temperature.

The target in assay [3] is T4, ORCO + Or1a (Drosophila melanogaster, UniProt Q9VNB5).
T4 construct: heteromer; cRNAs co-injected in Xenopus laevis oocytes (pGEM-HE); for DTBP, site on Orco; with Odorant receptor 1a
T4 sequence (Q9VNB5 1-486): T1 sequence (Q9VNB5 1-486)
T4 sequence (Q9W5G6 1-392 partner): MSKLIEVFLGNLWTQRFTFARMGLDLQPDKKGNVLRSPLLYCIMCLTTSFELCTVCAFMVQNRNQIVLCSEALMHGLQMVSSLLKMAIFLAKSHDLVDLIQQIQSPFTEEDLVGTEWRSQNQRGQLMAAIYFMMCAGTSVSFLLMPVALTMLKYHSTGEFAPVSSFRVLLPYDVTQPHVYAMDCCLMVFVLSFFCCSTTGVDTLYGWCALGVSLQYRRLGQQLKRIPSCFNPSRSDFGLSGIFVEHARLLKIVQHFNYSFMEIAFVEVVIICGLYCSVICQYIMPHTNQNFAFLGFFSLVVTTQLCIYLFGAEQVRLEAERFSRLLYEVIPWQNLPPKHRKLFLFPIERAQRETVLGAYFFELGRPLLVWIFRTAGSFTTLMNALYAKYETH
The conditions noted are these: agonist; holding potential -80 mV, ND96 pH 7.4, room temperature; unit inferred, μM from text for the ORCO row. The source says: two-electrode voltage clamp, Xenopus oocytes on ORCO + Or1a

For assay [4], the target named is T5, Orco + Or1a (Drosophila melanogaster, UniProt Q9W5G6).
T5 construct: same complex as P2, site on OrX; with Odorant receptor coreceptor
T5 sequence (Q9W5G6 1-392): T4 sequence (Q9W5G6 1-392 partner)
T5 sequence (Q9VNB5 1-486 partner): T1 sequence (Q9VNB5 1-486)
The conditions noted are these: agonist; 0.3 μM in Figure 2B; holding potential -80 mV, ND96 pH 7.4.

Assay [5] addresses T6, Orco + Or35a (Drosophila melanogaster, UniProt Q9V3Q2).
T6 construct: same complex as P4, site on OrX; with Odorant receptor coreceptor
T6 sequence (Q9V3Q2 1-409): T2 sequence (Q9V3Q2 1-409 partner)
T6 sequence (Q9VNB5 1-486 partner): T1 sequence (Q9VNB5 1-486)
The settings on record: agonist; 10 μM in Figure 2D; holding potential -80 mV, ND96 pH 7.4.

Assay [6] addresses T7, Orco + Or24a (Drosophila melanogaster, UniProt P81913).
T7 construct: same complex as P3, site on OrX; with Odorant receptor coreceptor
T7 sequence (P81913 1-398): T1 sequence (P81913 1-398 partner)
T7 sequence (Q9VNB5 1-486 partner): T1 sequence (Q9VNB5 1-486)
The conditions noted are these: agonist; 0.3 μM in Figure 2C; holding potential -80 mV, ND96 pH 7.4.

In general, EC50 refers to the concentration that produces a half-maximal response.

Structures are written as SMILES.

In the case of `CC(C)(C)c1ccc(O)c(C(C)(C)C)c1` [2,4-di-tert-butylphenol], the EC50 on ORCO + Or24a [1] was determined as 51 ± 8.2 µM; at ORCO + Or35a [2], 38.1 ± 3.8 µM; on Orco homomeric receptor it was 13.4 ± 3 µM; on ORCO + Or1a [3], 104 ± 27.7 µM. `CCCCCC(C)=O` [2-heptanone]: the normalised dose-response curve entry at Orco + Or1a [4] is “illustrate the normalized activation of DTBP and other odorants for each heteromeric receptor”.

`CCCCC(C)O` (stereo not shown) [2-hexanol]: on Orco + Or35a [5], the normalised dose-response curve result was “illustrate the normalized activation of DTBP and other odorants for each heteromeric receptor”.

Consider `CCCCCCCCO` [octanol], for which the normalised dose-response curve entry at Orco + Or24a [6] was “illustrate the normalized activation of DTBP and other odorants for each heteromeric receptor”.

The record behind these values is publication PMC10779170, “Identification of 2,4-Di-tert-butylphenol as a Novel Agonist for Insect Odorant Receptors” (International Journal of Molecular Sciences, 2023).
